Assay results from patent publication US9796741B2 (Achillion Pharmaceuticals, Inc., priority 2014, dated 2017).
pIC50: −log10 of the molar value.

What follows are molecules tested against Human factor D (Homo sapiens (Human), UniProt P00746) (assay: Human Factor D Assay). Conditions: not given.
Assay type: biochemical
Procedure: Human factor D (purified from human serum, Complement Technology, Inc.) at 80 nM final concentration is incubated with test compound at various concentrations for 5 minutes at room temperature in 50 mM Tris, 1M NaCl, pH 7.5. A synthetic substrate Z-L-Lys-SBzl and DTNB (Ellman's reagent) are added to final concentrations of 100 μM each. The increase in color is recorded at OD405 nm in a microplate in kinetic mode over 30 minutes with 30 second time points in a spectrofluorimeter. IC50 values are calculated by non-linear regression from the percentage of inhibition of complement factor D activity as a function of test compound concentration.

Human factor D, sequence (P00746 26-253): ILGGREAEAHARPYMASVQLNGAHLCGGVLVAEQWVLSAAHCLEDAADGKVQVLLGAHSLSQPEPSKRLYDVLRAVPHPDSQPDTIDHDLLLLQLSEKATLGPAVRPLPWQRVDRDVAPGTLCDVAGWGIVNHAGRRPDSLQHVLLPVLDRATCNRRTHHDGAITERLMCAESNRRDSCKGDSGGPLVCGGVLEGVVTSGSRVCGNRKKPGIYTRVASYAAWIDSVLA

SMILES	pIC50
NC(=O)c1nn(CC(=O)N2C[C@H](F)C[C@H]2C(=O)NCc2cccnc2)c2ccc(-c3ccnnc3)cc12 [Compound 39, 1-(2-((2S,4R)-4-fluoro-2-(pyridin-3-ylmethylcarbamoyl)pyrrolidin-1-yl)-2-oxoethyl)-5-(pyridazin-4-yl)-1H-indazole-3-carboxamide]	5.00 to 6.00
NC(=O)c1nn(CC(=O)N2C[C@H](F)C[C@H]2C(=O)Nc2ncc(Br)cn2)c2ccc(-c3ccnnc3)cc12 [Compound 109, 1-(2-((2S,4R)-2-(5-bromopyrimidin-2-ylcarbamoyl)-4-fluoropyrrolidin-1-yl)-2-oxoethyl)-5-(pyridazin-4-yl)-1H-indazole-3-carboxamide]	5.00 to 6.00

Same assay, conditions: human factor D 80 nM, substrate Z-L-Lys-SBzl, DTNB

SMILES	pIC50
NC(=O)c1nn(CC(=O)N2C[C@H](F)C[C@H]2C(=O)Nc2cccc(-c3ccccc3Cl)c2F)c2ccc(-c3ccc(F)nc3)cc12 [Compound 12, 1-(2-((2S,4R)-2-((2′-Chloro-2-fluoro-[1,1′-biphenyl]-3-yl)carbamoyl)-4-fluoropyrrolidin-1-yl)-2-oxoethyl)-5-(6-fluoropyridin-3-yl)-1H-indazole-3-carboxamide]	> 6.00
NC(=O)c1nn(CC(=O)N2C[C@H](F)C[C@H]2C(=O)N[C@H]2CCCC[C@@H]2OCc2ccccc2)c2ccc(-c3ccnnc3)cc12 [Compound 78]	< 5.00
CC(=O)c1cn(CC(=O)N2C[C@H](F)C[C@H]2C(=O)Nc2cccc3c2CN(c2ccccn2)C3)c2ccc(-c3ccnnc3)cc12 [Compound 105, (2S,4R)-1-(2-(3-acetyl-5-(pyridazin-4-yl)-1H-indol-1-yl)acetyl)-4-fluoro-N-(2-(pyridin-2-yl)isoindolin-4-yl)pyrrolidine-2-carboxamide]	< 5.00
CC(=O)c1cn(CC(=O)N2C[C@H](F)C[C@H]2C(=O)NCc2ccccn2)c2ccc(-c3ccnnc3)cc12 [Compound 38, (2S,4R)-1-(2-(3-acetyl-5-(pyridazin-4-yl)-1H-indol-1-yl)acetyl)-4-fluoro-N-(pyridin-2-ylmethyl)pyrrolidine-2-carboxamide]	> 6.00
NC(=O)c1nn(CC(=O)N2C[C@H](F)C[C@H]2C(=O)Nc2ccc3ncsc3c2)c2ccc(-c3ccnnc3)cc12 [Compound 50, 1-(2-((2S,4R)-2-(benzo[d]thiazol-6-ylcarbamoyl)-4-fluoropyrrolidin-1-yl)-2-oxoethyl)-5-(pyridazin-4-yl)-1H-indazole-3-carboxamide]	< 5.00
NC(=O)c1nn(CC(=O)N2C[C@H](F)C[C@H]2C(=O)NCc2nc3ccccc3s2)c2ccc(-c3ccnnc3)cc12 [Compound 52, 1-(2-((2S,4R)-2-(benzo[d]thiazol-2-ylmethylcarbamoyl)-4-fluoropyrrolidin-1-yl)-2-oxoethyl)-5-(pyridazin-4-yl)-1H-indazole-3-carboxamide]	< 5.00
NC(=O)c1nn(CC(=O)N2[C@@H]3C[C@@H]3C[C@H]2C(=O)Nc2cccc(Br)n2)c2ccc(-c3cnc(N4CCCC4)nc3)cc12 [Compound 11]	> 6.00
CC(=O)c1cn(CC(=O)N2C[C@H](F)C[C@H]2C(=O)Nc2cccc(Br)n2)c2ccc(-c3cncnc3)cc12 [Compound 14, (2S,4R)-1-(2-(3-acetyl-5-(pyrimidin-5-yl)-1H-indol-1-yl)acetyl)-N-(6-bromopyridin-2-yl)-4-fluoropyrrolidine-2-carboxamide]	> 6.00
NC(=O)c1nn(CC(=O)N2[C@@H]3C[C@@H]3C[C@H]2C(=O)Nc2cccc(Br)n2)c2ccc(-c3cncnc3)cc12 [Compound 4]	> 6.00
CC(=O)c1cn(CC(=O)N2C[C@H](F)C[C@H]2C(=O)Nc2cccc(-c3ccccc3Cl)c2F)c2ccc(N3CCN(C(C)=O)CC3)cc12 [Compound 16, (2S,4R)-1-(2-(3-acetyl-5-(4-acetylpiperazin-1-yl)-1H-indol-1-yl)acetyl)-N-(2′-chloro-2-fluorobiphenyl-3-yl)-4-fluoropyrrolidine-2-carboxamide]	> 6.00
CC(=O)c1cn(CC(=O)N2C[C@H](F)C[C@H]2C(=O)Nc2cccc(Cl)c2C(F)(F)F)c2ccc(-c3ccnnc3)cc12 [Compound 126, (2S,4R)-1-(2-(3-acetyl-5-(pyridazin-4-yl)-1H-indol-1-yl)acetyl)-N-(3-chloro-2-(trifluoromethyl)phenyl)-4-fluoropyrrolidine-2-carboxamide]	< 5.00
CC(=O)c1cn(CC(=O)N2C[C@H](F)C[C@H]2C(=O)NCc2cc(F)cc(Cl)c2)c2ccc(-c3ccnnc3)cc12 [Compound 46, (2S,4R)-1-(2-(3-acetyl-5-(pyridazin-4-yl)-1H-indol-1-yl)acetyl)-N-(3-chloro-5-fluorobenzyl)-4-fluoropyrrolidine-2-carboxamide]	> 6.00
COc1ncc(-c2ccc3c(c2)c(C(C)=O)cn3CC(=O)N2[C@@H]3C[C@@H]3C[C@H]2C(=O)Nc2cccc(Br)n2)cn1 [Compound 81, (1R,3S,5R)-2-(2-(3-acetyl-5-(2-methoxypyrimidin-5-yl)-1H-indol-1-yl)acetyl)-N-(6-bromopyridin-2-yl)-2-azabicyclo[3.1.0] hexane-3-carboxamide]	> 6.00
Cc1cc(NC(=O)[C@@H]2C[C@@H](F)CN2C(=O)Cn2nc(C(N)=O)c3cc(-c4ccnnc4)ccc32)n(-c2ccccc2F)n1 [Compound 158, 1-(2-((2S,4R)-4-fluoro-2-(1-(2-fluorophenyl)-3-methyl-1H-pyrazol-5-ylcarbamoyl)pyrrolidin-1-yl)-2-oxoethyl)-5-(pyridazin-4-yl)-1H-indazole-3-carboxamide]	< 5.00
NC(=O)c1nn(CC(=O)N2[C@@H]3C[C@@H]3C[C@H]2C(=O)Nc2cccc(-c3ccccc3Cl)c2F)c2ccc(-c3cncnc3)cc12 [Compound 6, 1-(2-((1R,3S,5R)-3-(2′-chloro-2-fluorobiphenyl-3-ylcarbamoyl)-2-azabicyclo[3.1.0]hexan-2-yl)-2-oxoethyl)-5-(pyrimidin-5-yl)-1H-indazole-3-carboxamide]	> 6.00
CC(=O)c1cn(CC(=O)N2C[C@H](F)C[C@H]2C(=O)Nc2cccc(-c3ccccc3Cl)c2F)c2ccc(-c3cnc(N4CCCC4)nc3)cc12 [Compound 26, (2S,4R)-1-(2-(3-acetyl-5-(2-(pyrrolidin-1-yl)pyrimidin-5-yl)-1H-indol-1-yl)acetyl)-N-(2′-chloro-2-fluorobiphenyl-3-yl)-4-fluoropyrrolidine-2-carboxamide]	> 6.00
NC(=O)c1nn(CC(=O)N2C[C@H](F)C[C@H]2C(=O)Nc2ccc3cn[nH]c3c2)c2ccc(-c3ccnnc3)cc12 [Compound 86, 1-(2-((2S,4R)-2-(1H-indazol-6-ylcarbamoyl)-4-fluoropyrrolidin-1-yl)-2-oxoethyl)-5-(pyridazin-4-yl)-1H-indazole-3-carboxamide]	< 5.00
NC(=O)c1nn(CC(=O)N2C[C@H](F)C[C@H]2C(=O)Nc2cccc(Br)n2)c2ccc(-c3ccnnc3)cc12 [Compound 25, 1-(2-((2S,4R)-2-(6-bromopyridin-2-ylcarbamoyl)-4-fluoropyrrolidin-1-yl)-2-oxoethyl)-5-(pyridazin-4-yl)-1H-indazole-3-carboxamide]	> 6.00
NC(=O)c1nn(CC(=O)N2C[C@H](F)C[C@H]2C(=O)Nc2cccc(Br)n2)c2ccc(-c3cncnc3)cc12 [Compound 5, 1-(2-((2S,4R)-2-(6-bromopyridin-2-ylcarbamoyl)-4-fluoropyrrolidin-1-yl)-2-oxoethyl)-5-(pyrimidin-5-yl)-1H-indazole-3-carboxamide]	> 6.00
NC(=O)c1nn(CC(=O)N2C[C@H](F)C[C@H]2C(=O)NCc2cccc(Cl)c2F)c2cnc(-c3cncnc3)cc12 [Compound 18, 1-(2-((2S,4R)-2-(3-chloro-2-fluorobenzylcarbamoyl)-4-fluoropyrrolidin-1-yl)-2-oxoethyl)-5-(pyrimidin-5-yl)-1H-pyrazolo[3,4-c]pyridine-3-carboxamide]	> 6.00
CC(=O)c1cn(CC(=O)N2C[C@H](F)C[C@H]2C(=O)Nc2cccc(-c3ccccc3Cl)c2F)c2ccc(-c3cnnc(C)c3)cc12 [Compound 121, (2S,4R)-1-(2-(3-acetyl-5-(6-methylpyridazin-4-yl)-1H-indol-1-yl)acetyl)-N-(2′-chloro-2-fluorobiphenyl-3-yl)-4-fluoropyrrolidine-2-carboxamide]	> 6.00
CNc1ncc(-c2ccc3c(c2)c(C(C)=O)cn3CC(=O)N2C[C@H](F)C[C@H]2C(=O)Nc2cccc(-c3ccccc3Cl)c2F)cn1 [Compound 188, (2S,4R)-1-(2-(3-acetyl-5-(2-(methylamino)pyrimidin-5-yl)-1H-indol-1-yl)acetyl)-N-(2′-chloro-2-fluorobiphenyl-3-yl)-4-fluoropyrrolidine-2-carboxamide]	> 6.00
NC(=O)c1nn(CC(=O)N2C[C@H](F)C[C@H]2C(=O)N[C@@H]2CCC[C@@H]2OCc2ccccc2)c2ccc(-c3ccnnc3)cc12 [Compound 51, 1-(2-((2S,4R)-2-((1R,2S)-2-(benzyloxy)cyclopentylcarbamoyl)-4-fluoropyrrolidin-1-yl)-2-oxoethyl)-5-(pyridazin-4-yl)-1H-indazole-3-carboxamide]	< 5.00
NC(=O)c1nn(CC(=O)N2C[C@H](F)C[C@H]2C(=O)NC2CCCc3nc(-c4ccc(F)cc4)sc32)c2ccc(-c3ccnnc3)cc12 (stereo partly drawn) [Compound 107, 1-(2-((2S,4R)-4-fluoro-2-(2-(4-fluorophenyl)-4,5,6,7-tetrahydrobenzo[d]thiazol-7-ylcarbamoyl)pyrrolidin-1-yl)-2-oxoethyl)-5-(pyridazin-4-yl)-1H-indazole-3-carboxamide]	< 5.00
NC(=O)c1nn(CC(=O)N2C[C@H](F)C[C@H]2C(=O)Nc2cccnc2)c2ccc(-c3ccnnc3)cc12 [Compound 47, 1-(2-((2S,4R)-4-fluoro-2-(pyridin-3-ylcarbamoyl)pyrrolidin-1-yl)-2-oxoethyl)-5-(pyridazin-4-yl)-1H-indazole-3-carboxamide]	< 5.00
